Assay results reported in patent US20110257074A1, “METHOD FOR THE PURIFICATION OF SUBSTITUTED CYCLOPENT-2-EN-1-ONE CONGENERS AND SUBSTITUTED 1,3-CYCLOPENTADIONE CONGENERS FROM A COMPLEX MIXTURE USING COUNTERCURRENT SEPARATION” (Metaproteomics, LLC, priority 2008, published 2011).

Assays:
[1] = Partition coefficient in trial HSCCC countercurrent separations of THIAA; format: physicochemical
Description: All HSCCC experimentation was conducted on a CCC-1000 J-type three-coiled planetary motion HSCCCC (Pharma-Tech Research Corp., Baltimore, Md., USA). The rotation radius is 7.5 cm, and 3×108 mL PTFE Teflon coils with an inner diameter of 1.6 mm, an outer diameter of 2.7 mm, and beta values of 0.47 to 0.73 for all coils. This was coupled with Shimadzu (Kyoto, Japan) liquid chromatography instrumentation: LC-20AT pump, DGU-20A5 degasser, CBM-20A controller, and SPD-10AV UV detector. A preparative Rheodyne (Rohnert Park, Calif. USA) 3725i-038 injector was in line with a 3.8 mL sample loop (changed to 10 mL for entry 7). The sample was monitored at 254 nm and 314 nm during the course of the run.
KU/L values for THIAA were determined in a variety of HEMWat solvent systems according to the shake-flask partitioning assay. Two solvent systems, referred to as A and B, provided K values within the range 1.5-2.5 and with significant differences between THIAA congeners (•K). For these reasons solvent systems A and B were selected for further development on the HSCCC (Table 9). […] The entries in Table 10 correspond to seven trial THIAA HSCCC purifications; entries 1-3 were conducted using solvent system A; entries 4-7 used solvent system B. Because of the difference in THIAA concentration between the shake-flask assay (0.1 mg/mL, 0.273 mM) and the HSCCC sample loop (100 mg/mL; 273 mM), aqueous phase buffer concentrations of 1.2 M (entries 1-3, Table 10) and 555 mM (entries 4-7, Table 10) were employed for the HSCCC trials. Entry 3 in Table 10 uses a bi-phasic sample-loop injection (solvent C, Table 9) consisting of 1.9 mL of upper phase (200 mg/mL THIAA, 0.55M) and 1.9 mL of lower phase (6.5M NH4HAc aq.). A switching volume was employed in entries 2, 6 and 7 in order to assess the elution-extrusion protocol as reported by Pauli et al.
Entries 4 & 5 Table 10, examine the effect of increasing the pH for solvent system B on the resolution between THIAA congeners. We reasoned that increased pH leads to a greater concentration of the ionized form of the THIAA (conjugate base) thus resulting in greater amounts of THIAA retained in the aqueous stationary phase i.e., increased retention volume (Vr).

[2] = Shake-flask liquid distribution ratio (Kd), Hexane:Water:Buffer 10:9:1 solvent system; format: physicochemical
Description: Several shake-flask experiments were conducted to test several solvent systems and determine the liquid distribution ratio (Kd) and partition coefficient values for optimal separations. Partition coefficient values derived from shake-flask experiments are a reliable predictor of countercurrent chromatographic behavior. Kd is the concentration of the analyte in the upper phase divided by the concentration of the analyte in the lower phase and, in the alternative, may be listed as Ku/l.
General Procedure and Parameters for Shake Flask Experiments: Addition of 1 mL of the stock buffer at a known pH. Addition of the other necessary solvents to make up the system. Addition of the analyte mixture dissolved in hexane at 400 mg/mL. Final analyte concentration in the shake flask is 0.1 mg/mL. The flask was capped and mixed (by a vortex mixer) for 10 seconds. An aliquot was taken from the upper phase for HPLC analysis, and additionally a separate aliquot was taken from the lower phase for HPLC analysis from each flask. Each component was analyzed by HPLC and integrated using Shimadzu Class VP Software version 7.3 SP1.

[3] = trial 1, solvent system A, ascending elution, 680 rpm, 4 mL/min, 3.8 mL sample loop
[4] = trial 2, solvent system A, switching volume 320 mL, ascending elution, 680 rpm, 4 mL/min
[5] = trial 3, solvent system A, bi-phasic sample-loop injection (1.9 mL solvent system C), ascending elution
[6] = trial 4, solvent system B′, ascending elution, 680 rpm, 4 mL/min
[7] = trial 5, solvent system B, ascending elution, 680 rpm, 4 mL/min
[8] = trial 6, solvent system B, switching volume 600 mL, ascending elution
[9] = trial 7, solvent system B, switching volume 520 mL, 1.0 g raw material loaded, 10 mL sample loop

Row | SMILES | Partition Coefficient [1, 3] | Partition Coefficient [1, 4] | Partition Coefficient [1, 5] | Partition Coefficient [1, 6] | Partition Coefficient [1, 7] | Partition Coefficient [1, 8] | Partition Coefficient [1, 9] | THIAA K Value ([2]; pH 4.9, Aug. 5, 2008) | THIAA K Value ([2]; pH 5.5, Aug. 5, 2008) | THIAA K Value ([2]; pH 5.6, Aug. 5, 2008) | THIAA K Value ([2]; pH 6.0, Aug. 5, 2008)
1 | CCC(C)C(=O)C1=C(O)[C@@](O)(C(=O)CCC(C)C)[C@H](CCC(C)C)C1=O (single isomer, unassigned; (+)) [TH4] | 1.0 | 1.0 | 1.1 | 0.6 | 0.8 | 0.8 | 0.8 | 55.6 | 16.1 | 11.0 | 5.5
2 | CC(C)CCC(=O)[C@]1(O)C(O)=C(C(=O)C(C)C)C(=O)[C@H]1CCC(C)C [TH1, (+)-(4R,5S)-3,4-dihydroxy-2-isobutyryl-5-(3-methylbutyl)-4-(4-methylpentanoyl)cyclopent-2-en-1-one] | 2.0 | 2.0 | 2.1 | 1.7 | 2.5 | 2.7 | 2.6 | 16.5 | 4.2 | 3.0 | 1.5
3 | CC(C)CCC(=O)[C@@]1(O)C(O)=C(C(=O)C(C)C)C(=O)[C@H]1CCC(C)C [TH2, (−)-(4S,5S)-3,4-dihydroxy-2-isobutyryl-5-(3-methylbutyl)-4-(4-methylpentanoyl)cyclopent-2-en-1-one] |  |  |  |  |  |  |  | 10.8 | 2.5 | 1.8 | 0.9
4 | CCC(C)C(=O)C1=C(O)C(O)(C(=O)CCC(C)C)C(CCC(C)C)C1=O (stereo not drawn) [TH3, trans tetra ad-isoalpha acid] |  |  |  |  |  |  |  | 60.3 | 17.8 | 11.4 | 5.5
5 | CC(C)CCC(=O)[C@]1(O)C(O)=C(C(=O)CC(C)C)C(=O)[C@H]1CCC(C)C [TH5, (+)-(4R,5S)-3,4-dihydroxy-2-(3-methylbutanoyl)-5-(3-methylbutyl)-4-(4-methylpentanoyl)cyclopent-2-en-1-one] | 1.4 | 1.4 | 1.4 | 0.9 | 1.3 | 1.3 | 1.5 | 32.8 | 9.5 | 6.6 | 3.3
